Some test systems named below: ACHN renal; EKVX NSCLC; HOP-62 NSCLC; HOP-92 NSCLC; HS 578T breast; K-562 leukemia; LOX IMVI melanoma; MALME-3M melanoma; MDA-MB-435; OVCAR-5 ovarian; RPMI-8226 leukemia; SK-MEL-28 melanoma; SK-OV-3 ovarian; T-47D breast; U251 CNS; UACC-257 melanoma.
Holding throughout (assay): NCI anticancer screen, dose series, 48 h

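Values below derive from 48-hour exposures of cells grown in 96-well plates, with endpoints linearly interpolated between the two concentrations bracketing the appropriate inhibition level. The concentration for full growth arrest is given as TGI.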

In the case of `Cc1ccccc1C(=O)NC(O)(C(F)(F)F)C(F)(F)F`, the TGI with ACHN renal, in the assay with EKVX NSCLC, with HOP-62 NSCLC, with HOP-92 NSCLC, in the assay on HS 578T breast and in the assay on K-562 leukemia was more than 100 µM in each case. The TGI in the assay with LOX IMVI melanoma, in the assay with MALME-3M melanoma, with MDA-MB-435, with OVCAR-5 ovarian, in the assay with RPMI-8226 leukemia and in the assay with SK-MEL-28 melanoma was more than 100 µM in each case. Further, the TGI in the assay on SK-OV-3 ovarian, with T-47D breast, in the assay with U251 CNS and in the assay on UACC-257 melanoma was more than 100 µM throughout.

Take `c1csc(-c2ccc(-c3ccsc3)s2)c1`: the TGI with ACHN renal, with EKVX NSCLC, with HOP-62 NSCLC, with HOP-92 NSCLC, in the assay on HS 578T breast and with K-562 leukemia was more than 100 µM each time. The TGI in the assay on LOX IMVI melanoma, with MALME-3M melanoma, in the assay with MDA-MB-435, in the assay with OVCAR-5 ovarian, with RPMI-8226 leukemia and with SK-MEL-28 melanoma was more than 100 µM throughout. Besides, the TGI with SK-OV-3 ovarian, in the assay with T-47D breast, with U251 CNS and in the assay on UACC-257 melanoma was more than 100 µM each time.

For the molecule `CSc1ncc2c(C#N)c3ccccn3c(=O)c2n1`, the TGI with ACHN renal, in the assay with EKVX NSCLC, in the assay with HOP-62 NSCLC, with HOP-92 NSCLC, in the assay on HS 578T breast and with K-562 leukemia was more than 100 µM throughout. The TGI in the assay on LOX IMVI melanoma, in the assay with MALME-3M melanoma, in the assay on MDA-MB-435, in the assay on OVCAR-5 ovarian, in the assay on RPMI-8226 leukemia and in the assay with SK-MEL-28 melanoma was more than 100 µM each time. Besides, the TGI in the assay with SK-OV-3 ovarian, with T-47D breast, in the assay on U251 CNS and in the assay with UACC-257 melanoma was more than 100 µM throughout.

For the molecule `CC(C)CNC(=O)c1c(NC(=O)c2ccccc2)sc2[nH]c(=O)n(-c3ccccc3)c(=O)c12`, the TGI in the assay on ACHN renal is 61 µM; in the assay with EKVX NSCLC, more than 100 µM; in the assay with HOP-62 NSCLC it was 49.1 µM; in the assay with HOP-92 NSCLC, 19.7 µM; in the assay with HS 578T breast it was more than 79.1 µM; with K-562 leukemia, more than 86.9 µM. Further, the TGI with LOX IMVI melanoma, in the assay on MALME-3M melanoma, in the assay with MDA-MB-435, with OVCAR-5 ovarian, in the assay with RPMI-8226 leukemia and in the assay with SK-MEL-28 melanoma was more than 100 µM throughout. The TGI in the assay on SK-OV-3 ovarian is more than 81.2 µM; in the assay on T-47D breast, more than 100 µM; with U251 CNS, more than 100 µM; in the assay on UACC-257 melanoma, more than 100 µM.

Regarding `COc1ccc(/C=N/NS(=O)(=O)c2ccc(/C=C3\NC(=O)N(C)C3=O)cc2)cc1`, the TGI in the assay with ACHN renal, in the assay with EKVX NSCLC, in the assay on HOP-62 NSCLC, in the assay on HOP-92 NSCLC, in the assay with HS 578T breast and with K-562 leukemia was more than 100 µM throughout. In addition, the TGI in the assay on LOX IMVI melanoma, in the assay with MALME-3M melanoma, in the assay on MDA-MB-435, in the assay with OVCAR-5 ovarian, with RPMI-8226 leukemia and in the assay with SK-MEL-28 melanoma was more than 100 µM throughout. The TGI in the assay with SK-OV-3 ovarian, with T-47D breast, in the assay with U251 CNS and in the assay with UACC-257 melanoma was more than 100 µM throughout.

`Nc1ncnc2c1ccn2CC=C(CO)CO`: the TGI in the assay on ACHN renal, in the assay on EKVX NSCLC, in the assay on HOP-62 NSCLC, in the assay on HOP-92 NSCLC, with HS 578T breast and in the assay on K-562 leukemia was more than 100 µM each time. Further, the TGI with LOX IMVI melanoma, in the assay on MALME-3M melanoma, in the assay on MDA-MB-435, with OVCAR-5 ovarian, with RPMI-8226 leukemia and with SK-MEL-28 melanoma was more than 100 µM in each case. The TGI with SK-OV-3 ovarian, in the assay on T-47D breast, in the assay on U251 CNS and in the assay on UACC-257 melanoma was more than 100 µM each time.

For the molecule `N=C1/C(=C/c2ccccc2)C(=O)N=C2SC=NN12`, the TGI with ACHN renal, in the assay with EKVX NSCLC, in the assay with HOP-62 NSCLC, in the assay with HOP-92 NSCLC, in the assay with HS 578T breast and in the assay on K-562 leukemia was more than 100 µM throughout. Moreover, the TGI with LOX IMVI melanoma, in the assay with MALME-3M melanoma, in the assay on MDA-MB-435, in the assay on OVCAR-5 ovarian, in the assay with RPMI-8226 leukemia and with SK-MEL-28 melanoma was more than 100 µM each time. Moreover, the TGI in the assay on SK-OV-3 ovarian, in the assay on T-47D breast, in the assay on U251 CNS and in the assay with UACC-257 melanoma was more than 100 µM in each case.

The values are drawn from PubChem BioAssay (NCI).
